Measurements published in US20070244102A1, “Combination of Dermaciclane and Opoids as Analgesics” (priority 2004, published 2007).
Entries after “also recorded” stand apart in the source; their conditions may differ. Structures can show the parent of a compound that is named as a salt.

Columns and labels:
[1] = system: mice; experiment: hot plate test in mice (influence on morphine analgesia); type: in vivo; details: for influence on the analgesic effect of morphine (in words): 30 mg/kg ip. with morphine HCl 1 mg/kg sc.; for analgesia when given alone (in words): alone: morphine HCl 1 mg/kg sc., deramciclane 30 mg/kg ip., buspiron HCl 30 mg/kg ip.
Method: A modified of method of Eddy et al. (Eddy, N. B., Leimback, D., Synthetic Analgesics II. Dithienylbutenyl and Dithienylbutylamines. J. Pharmacol. Exp. Ther. 107: p. 385-393, 1953) was used. Male NMRI nice (20-25 g bodyweight) were dropped on a hot plate (56±0.5° C.) and the latency time elapsed until licking the forepaws was measured. The reaction time was tested twice before treatment. […] Mice were treated either with saline or with morphine HCl 1 mg/kg subcutaneously and at the same time either with vehicle or with deramciclane or buspirone, HCl 30 mg/kg intraperitoneally, respectively. After the treatment (15, 30, 45 and 60 min.) the reaction time was measured again. Animals were regarded as positive if they produced a 2.5-fold reaction time increase at least twice compared to their first control values. Statistical analysis was performed using the chi-square method.

[2] = in the above mentioned doses (0.7-30 mg/kg); cited from earlier work
[3] = single 0.7 mg/kg oral treatment; cited from earlier work
[4] = 1 and 10 mg/kg after oral administration; cited from earlier work
[5] = single oral dose of 3 mg/kg; cited from earlier work
[6] = 10 and 30 mg/kg after oral treatment; cited from earlier work
[7] = Saline sc. + Buspiron HCl 30 mg/kg ip.
[8] = Morphine HCl 1 mg/kg sc. + 0.4% methyl cellulose ip.
[9] = Morphine HCl 1 mg/kg sc. + Saline ip.

| Compound | influence on the analgesic effect of morphine (in words) [1] | Effect % [1, 7] | Positive/treated animals [1, 7] | analgesia when given alone (in words) ([1]; listed as buspiron HCl, HCl) | analgesia when given alone (in words) ([1]; listed as buspiron, HCl) | analgesic activity [2] | time spent with social interactions [3] | activity in Vogel punished drinking test [4] | activity in light-dark model [5] | Effect % ([1]; Saline sc. + Deramciclane 30 mg/kg ip.) | Positive/treated animals ([1]; Saline sc. + Deramciclane 30 mg/kg ip., positive = 2.5-fold reaction time increase at least twice, 15-60 min) | analgesia when given alone (in words) [1] | activity in marble burying model [6] | Effect % [1, 8] | Positive/treated animals [1, 8] | Effect % [1, 9] | Positive/treated animals [1, 9] |
| --- | --- | --- | --- | --- | --- | --- | --- | --- | --- | --- | --- | --- | --- | --- | --- | --- | --- |
| O=C1CC2(CCCC2)CC(=O)N1CCCCN1CCN(c2ncccn2)CC1 [Buspiron HCl, buspirone, HCl] | did not influence the analgesic effect of morphine | 0% | 0/10 | Neither morphine HCl 1 mg/kg sc. nor deramciclane 30 mg/kg ip. nor buspiron HCl 30 mg/kg ip. alone produced analgesia | neither deramciclane nor buspiron possess analgesic effect in itself | – | – | – | – | – | – | – | – | – | – | – | – |
| (1R,2S,4R)-(−)-2-[N,N-(dimethylaminoethoxy)]-2-phenyl-1,7,7-trimethylbicyclo[2.2.1]heptane [Deramciclane] | potentiation of the analgesic effect of morphine | – | – | – | – | did not possess analgesic activity | increased the time spent with social interactions | active | active | 0% | 0/10 | Neither morphine HCl 1 mg/kg sc. nor deramciclane 30 mg/kg ip. nor buspiron HCl 30 mg/kg ip. alone produced analgesia; also recorded: neither deramciclane nor buspiron possess analgesic effect in itself | active | – | – | – | – |
| CN1CC[C@]23c4c5ccc(O)c4O[C@H]2[C@@H](O)C=C[C@H]3[C@H]1C5.Cl [Morphine HCl, morphine HCl] | – | – | – | – | – | – | – | – | – | – | – | Neither morphine HCl 1 mg/kg sc. nor deramciclane 30 mg/kg ip. nor buspiron HCl 30 mg/kg ip. alone produced analgesia | – | 0% | 0/10 | 0% | 0/10 |
